Experimental data reported in ChEMBL document CHEMBL1144507, “Synthesis and antifungal activity of (Z)-5-arylidenerhodanines” (2007).
Converted amounts (≈) assume the structure as drawn. Each block holds one molecule with its values, some of them ahead of it.

Experiments:
Nannizzia gypsea = assay: Antifungal activity against Microsporum gypseum C115 after 48 hrs; assay type: functional
Trichophyton rubrum = assay: Antifungal activity against Trichophyton rubrum C113 after 48 hrs; assay type: functional
Trichophyton benhamiae = assay: Antifungal activity against Trichophyton mentagrophytes ATCC 9972 after 48 hrs; assay type: functional, Arthroderma benhamiae; conditions: ATCC 9972, 48 h
Candida albicans [1] = assay: Antifungal activity against Candida albicans ATCC 10231 after 48 hrs; assay type: functional; conditions: ATCC 10231, 48 h
Saccharomyces cerevisiae = assay: Antifungal activity against Saccharomyces cerevisiae ATCC 9763 after 48 hrs; assay type: functional; conditions: ATCC 9763, 48 h
Cryptococcus neoformans [2] = assay: Antifungal activity against Cryptococcus neoformans ATCC 32264 after 48 hrs; assay type: functional; conditions: ATCC 32264, 48 h
Aspergillus niger = assay: Antifungal activity against Aspergillus niger ATCC 9029 after 48 hrs; assay type: functional; conditions: ATCC 9029, 48 h
Aspergillus fumigatus = assay: Antifungal activity against Aspergillus fumigatus ATCC 26934 after 48 hrs; assay type: functional; conditions: ATCC 26934, 48 h
Aspergillus flavus = assay: Antifungal activity against Aspergillus flavus ATCC 9170 after 48 hrs; assay type: functional; conditions: ATCC 9170, 48 h
Candida albicans [3] = assay: Antifungal activity against Candida albicans C125-2000 after 48 hrs; assay type: functional
Candida albicans [4] = assay: Antifungal activity against Candida albicans C126-2000 after 48 hrs; assay type: functional
Candida albicans [5] = assay: Antifungal activity against Candida albicans C127-2000 after 48 hrs; assay type: functional
Candida albicans [6] = assay: Antifungal activity against Candida albicans C128-2000 after 48 hrs; assay type: functional
Candida albicans [7] = assay: Antifungal activity against Candida albicans C130-2000 after 48 hrs; assay type: functional
Nakaseomyces glabratus = assay: Antifungal activity against Candida glabrata C115-2000 after 48 hrs; assay type: functional
Candida parapsilosis = assay: Antifungal activity against Candida parapsilosis C124-2000 after 48 hrs; assay type: functional; conditions: Lodderomyces parapsilosis
Clavispora lusitaniae = assay: Antifungal activity against Candida lusitaniae C131-2000 after 48 hrs; assay type: functional
Torulaspora delbrueckii = assay: Antifungal activity against Candida coliculosa C122-2000 after 48 hrs; assay type: functional
Pichia kudriavzevii = assay: Antifungal activity against Candida krusei C117-2000 after 48 hrs; assay type: functional
Kluyveromyces marxianus = assay: Antifungal activity against Candida kefyr C123-2000 after 48 hrs; assay type: functional
Candida tropicalis = assay: Antifungal activity against Candida tropicalis C131-1997 after 48 hrs; assay type: functional
Cryptococcus neoformans [8] = assay: Antifungal activity against […] ATCC 32264 after 48 hrs; assay type: functional; conditions: ATCC 32264, 48 h
Cryptococcus neoformans [9] = assay: Antifungal activity against Candida neoformans IM 983040 after 48 hrs; assay type: functional
Cryptococcus neoformans [10] = assay: Antifungal activity against […] IM 972724 after 48 hrs; assay type: functional
Cryptococcus neoformans [11] = assay: Antifungal activity against […] IM 042074 after 48 hrs; assay type: functional
Cryptococcus neoformans [12] = assay: Antifungal activity against […] IM 983036 after 48 hrs; assay type: functional
Cryptococcus neoformans [13] = assay: Antifungal activity against […] IM 00319 after 48 hrs; assay type: functional
Cryptococcus neoformans [14] = assay: Antifungal activity against […] IM 972751 after 48 hrs; assay type: functional
Cryptococcus neoformans [15] = assay: Antifungal activity against […] IM 031631 after 48 hrs; assay type: functional
Cryptococcus neoformans [16] = assay: Antifungal activity against […] IM 031706 after 48 hrs; assay type: functional
Cryptococcus neoformans [17] = assay: Antifungal activity against […] IM 961951 after 48 hrs; assay type: functional
Cryptococcus neoformans [18] = assay: Antifungal activity against […] IM 052470 after 48 hrs; assay type: functional
[19] = Cryptococcus neoformans, 48 h, read-out: MFC

MIC (Nannizzia gypsea): > 250 µg/mL
MIC (Trichophyton rubrum): > 250 µg/mL
MIC (Trichophyton benhamiae): > 250 µg/mL
MIC (Candida albicans [1]): > 250 µg/mL
MIC (Saccharomyces cerevisiae): > 250 µg/mL
MIC (Cryptococcus neoformans [2]): > 250 µg/mL
MIC (Aspergillus niger): > 250 µg/mL
MIC (Aspergillus fumigatus): > 250 µg/mL
MIC (Aspergillus flavus): > 250 µg/mL
SMILES: COc1ccc(/C=C2\SC(=S)NC2=O)c(OC)c1OC

MIC (Nannizzia gypsea): 3.9 µg/mL (≈ 16.3 µM)
MIC (Trichophyton rubrum): 3.9 µg/mL (≈ 16.3 µM)
MIC (Trichophyton benhamiae): 3.9 µg/mL (≈ 16.3 µM)
MIC (Candida albicans [1]): 250 µg/mL (≈ 1040 µM)
MIC (Saccharomyces cerevisiae): 250 µg/mL (≈ 1040 µM)
MIC (Cryptococcus neoformans [2]): 15.6 µg/mL (≈ 65.2 µM)
MIC (Aspergillus niger): > 250 µg/mL
MIC (Aspergillus fumigatus): > 250 µg/mL
MIC (Aspergillus flavus): > 250 µg/mL
SMILES: O=C1NC(=S)S/C1=C\c1ccccc1F

SMILES: C[C@@H]1[C@H](O)[C@@H](C)/C=C/C=C/C=C/C=C/C=C/C=C/C=C/[C@H](O[C@@H]2O[C@H](C)[C@@H](O)[C@H](N)[C@@H]2O)C[C@@H]2O[C@](O)(C[C@@H](O)C[C@@H](O)[C@H](O)CC[C@@H](O)C[C@@H](O)CC(=O)O[C@H]1C)C[C@H](O)[C@H]2C(=O)O [AMPHOTERICIN B]
MFC (Candida albicans [3]): 0.78 µg/mL (≈ 0.844 µM)
MFC (Candida albicans [4]): 1.56 µg/mL (≈ 1.69 µM)
MFC (Candida albicans [5]): 0.78 µg/mL (≈ 0.844 µM)
MFC (Candida albicans [6]): 1.56 µg/mL (≈ 1.69 µM)
MFC (Candida albicans [7]): 0.78 µg/mL (≈ 0.844 µM)
MFC (Nakaseomyces glabratus): 0.39 µg/mL (≈ 0.422 µM)
MFC (Candida parapsilosis): 0.78 µg/mL (≈ 0.844 µM)
MFC (Clavispora lusitaniae): 0.39 µg/mL (≈ 0.422 µM)
MFC (Torulaspora delbrueckii): 0.36 µg/mL (≈ 0.39 µM)
MFC (Pichia kudriavzevii): 0.39 µg/mL (≈ 0.422 µM)
MFC (Kluyveromyces marxianus): 0.78 µg/mL (≈ 0.844 µM)
MFC (Candida tropicalis): 0.5 µg/mL (≈ 0.541 µM)
MFC (Cryptococcus neoformans [8]): 0.25 µg/mL (≈ 0.271 µM)
MFC (Cryptococcus neoformans [9]): 0.13 µg/mL (≈ 0.141 µM)
MFC (Cryptococcus neoformans [10]): 0.06 µg/mL (≈ 0.0649 µM)
MFC (Cryptococcus neoformans [11]): 0.25 µg/mL (≈ 0.271 µM)
MFC (Cryptococcus neoformans [12]): 0.13 µg/mL (≈ 0.141 µM)
MFC (Cryptococcus neoformans [13]): 0.25 µg/mL (≈ 0.271 µM)
MFC (Cryptococcus neoformans [14]): 0.25 µg/mL (≈ 0.271 µM)
MFC (Cryptococcus neoformans [15]; [19]): 0.13 µg/mL (≈ 0.141 µM)
MFC (Cryptococcus neoformans [16]): 0.25 µg/mL (≈ 0.271 µM)
MFC (Cryptococcus neoformans [17]): 0.06 µg/mL (≈ 0.0649 µM)
MFC (Cryptococcus neoformans [18]): 0.5 µg/mL (≈ 0.541 µM)

SMILES: Nc1nc(=O)[nH]cc1F [FLUCYTOSINE]
MFC (Cryptococcus neoformans [9]): 7.8 µg/mL (≈ 60.4 µM)
MFC (Cryptococcus neoformans [10]): 3.9 µg/mL (≈ 30.2 µM)
MFC (Cryptococcus neoformans [11]): 3.9 µg/mL (≈ 30.2 µM)
MFC (Cryptococcus neoformans [12]): 7.8 µg/mL (≈ 60.4 µM)
MFC (Cryptococcus neoformans [14]): 15.6 µg/mL (≈ 121 µM)
MFC (Cryptococcus neoformans [15]; [19]): 7.8 µg/mL (≈ 60.4 µM)
MFC (Cryptococcus neoformans [16]): 7.8 µg/mL (≈ 60.4 µM)
MFC (Cryptococcus neoformans [17]): 3.9 µg/mL (≈ 30.2 µM)
MFC (Cryptococcus neoformans [18]): 7.8 µg/mL (≈ 60.4 µM)

SMILES: CCC(C)n1ncn(-c2ccc(N3CCN(c4ccc(OCC5COC(Cn6cncn6)(c6ccc(Cl)cc6Cl)O5)cc4)CC3)cc2)c1=O (centres undefined) [ITRACONAZOLE]
MFC (Cryptococcus neoformans [8]): 0.15 µg/mL (≈ 0.213 µM)
MFC (Cryptococcus neoformans [9]): < 0.015 µg/mL
MFC (Cryptococcus neoformans [10]): 0.25 µg/mL (≈ 0.354 µM)
MFC (Cryptococcus neoformans [11]): < 0.015 µg/mL
MFC (Cryptococcus neoformans [12]): < 0.015 µg/mL
MFC (Cryptococcus neoformans [13]): < 0.015 µg/mL
MFC (Cryptococcus neoformans [14]): < 0.015 µg/mL
MFC (Cryptococcus neoformans [15]; [19]): 0.25 µg/mL (≈ 0.354 µM)
MFC (Cryptococcus neoformans [16]): 0.5 µg/mL (≈ 0.709 µM)
MFC (Cryptococcus neoformans [17]): < 0.015 µg/mL
MFC (Cryptococcus neoformans [18]): < 0.015 µg/mL

SMILES: CC(=O)N1CCN(c2ccc(OCC3COC(Cn4ccnc4)(c4ccc(Cl)cc4Cl)O3)cc2)CC1 (centres undefined) [KETOCONAZOLE]
MFC (Candida albicans [3]): 6.25 µg/mL (≈ 11.8 µM)
MFC (Candida albicans [4]): 1.56 µg/mL (≈ 2.94 µM)
MFC (Candida albicans [5]): 6.25 µg/mL (≈ 11.8 µM)
MFC (Candida albicans [6]): 6.25 µg/mL (≈ 11.8 µM)
MFC (Candida albicans [7]): 6.25 µg/mL (≈ 11.8 µM)
MFC (Nakaseomyces glabratus): 1.56 µg/mL (≈ 2.94 µM)
MFC (Candida parapsilosis): 0.78 µg/mL (≈ 1.47 µM)
MFC (Clavispora lusitaniae): 25 µg/mL (≈ 47 µM)
MFC (Torulaspora delbrueckii): 0.78 µg/mL (≈ 1.47 µM)
MFC (Pichia kudriavzevii): 50 µg/mL (≈ 94.1 µM)
MFC (Kluyveromyces marxianus): 0.78 µg/mL (≈ 1.47 µM)
MFC (Candida tropicalis): 0.125 µg/mL (≈ 0.235 µM)
MFC (Cryptococcus neoformans [8]): 0.25 µg/mL (≈ 0.47 µM)

SMILES: C[C@@H](c1ncncc1F)[C@](O)(Cn1cncn1)c1ccc(F)cc1F [VORICONAZOLE]
MFC (Cryptococcus neoformans [9]): < 0.015 µg/mL
MFC (Cryptococcus neoformans [10]): < 0.015 µg/mL
MFC (Cryptococcus neoformans [11]): < 0.015 µg/mL
MFC (Cryptococcus neoformans [12]): < 0.015 µg/mL
MFC (Cryptococcus neoformans [13]): < 0.015 µg/mL
MFC (Cryptococcus neoformans [14]): 0.03 µg/mL (≈ 0.0859 µM)
MFC (Cryptococcus neoformans [15]): 0.25
MFC (Cryptococcus neoformans [16]): 0.5 µg/mL (≈ 1.43 µM)
MFC (Cryptococcus neoformans [17]): 0.015 µg/mL (≈ 0.0429 µM)
MFC (Cryptococcus neoformans [18]): 0.03 µg/mL (≈ 0.0859 µM)
